The record followed here is patent US20080090805A1, “CB-1 MODULATING COMPOUNDS AND THEIR USE” (ACADIA PHARMACEUTICALS INC., priority 2005, published 2008).

The target of data set [1] is human CB1 receptor (Homo sapiens, UniProt P21554). The experiment in a line: CB1 receptor human binding assay ([3H]SR141716A, transfected HEK-293 T membranes). To be noted: human CB1, HEK-293 T membranes; for Ki: read-out: Binding Human pKi (converted).
Data set [2] concerns the target native CB1 receptors (Rattus norvegicus, UniProt P20272). The experiment in a line: CB1 receptor rat binding assay ([3H]SR141716A, rat brain membranes). The note with it: rat brain membranes, [3H]SR141716A; for Ki: read-out: Binding rat pKi (converted).
Data set [3] can be described thus: Clearance study, liver microsomes (mice). The note with it: mouse, pH 7.4. In general terms: Microsomes from liver hold many membrane-bound enzymes, among them those of drug oxidation.
Data set [4] is described as follows: Clearance study, liver microsomes (human). The note with it: pH 7.4.
The nature of data set [5]: Clearance study, liver microsomes (rats). To be noted: rat, pH 7.4.

human CB1 receptor, sequence (P21554 whole entry): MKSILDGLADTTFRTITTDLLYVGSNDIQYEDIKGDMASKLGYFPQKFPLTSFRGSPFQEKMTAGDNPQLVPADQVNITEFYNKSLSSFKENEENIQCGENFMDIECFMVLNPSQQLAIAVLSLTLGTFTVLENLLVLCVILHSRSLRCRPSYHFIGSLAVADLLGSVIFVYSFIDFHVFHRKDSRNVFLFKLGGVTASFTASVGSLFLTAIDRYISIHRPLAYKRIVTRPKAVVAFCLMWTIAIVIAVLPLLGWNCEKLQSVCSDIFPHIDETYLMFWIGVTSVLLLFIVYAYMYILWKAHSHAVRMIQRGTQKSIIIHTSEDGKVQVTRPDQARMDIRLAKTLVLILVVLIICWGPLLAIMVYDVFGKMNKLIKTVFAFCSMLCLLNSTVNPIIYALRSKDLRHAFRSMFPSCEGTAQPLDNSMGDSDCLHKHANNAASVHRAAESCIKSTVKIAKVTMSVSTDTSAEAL
native CB1 receptors, sequence (P20272 whole entry): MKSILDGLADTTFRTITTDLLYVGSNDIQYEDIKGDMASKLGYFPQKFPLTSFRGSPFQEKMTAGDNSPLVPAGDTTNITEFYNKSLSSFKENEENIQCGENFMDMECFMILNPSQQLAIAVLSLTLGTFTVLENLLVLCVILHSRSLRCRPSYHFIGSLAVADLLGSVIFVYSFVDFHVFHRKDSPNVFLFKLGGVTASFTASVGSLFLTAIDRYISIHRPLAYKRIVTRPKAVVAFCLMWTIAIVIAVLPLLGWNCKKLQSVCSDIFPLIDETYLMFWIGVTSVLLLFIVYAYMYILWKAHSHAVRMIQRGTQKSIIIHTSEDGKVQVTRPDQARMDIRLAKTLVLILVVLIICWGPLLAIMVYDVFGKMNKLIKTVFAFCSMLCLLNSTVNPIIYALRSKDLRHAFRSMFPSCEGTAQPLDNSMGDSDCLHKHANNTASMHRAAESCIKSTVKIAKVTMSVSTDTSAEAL

With `O=C(NCCCC(F)(F)F)c1ccc2c(c1)N=C(c1ccc(Cl)cc1F)c1ccccc1S2` [drawing 1175], in data set [1], the “Binding Human Inh %” value was found to be 92% and the Ki is 79.4 pM. In data set [2], the “Binding rat Inh %” value is recorded as 87% and the Ki is 501 pM.

With `O=C(NCCCC(F)(F)F)c1ccc2c(c1)N=C(c1ccc(Cl)s1)c1ccccc1S2` [drawing 1176], in data set [1], the “Binding Human Inh %” value is given as 87% and the Ki is 158 pM. In addition, in data set [2], the “Binding rat Inh %” value is on record as 91% and the Ki is 501 pM.

In the case of `CC(C)CNC(=O)c1ccc2c(c1)N=C(c1ccc(Cl)cc1)c1ccc(F)cc1S2` [drawing 1177], in data set [1], the “Binding Human Inh %” value amounted to 93% and the Ki was 158 pM. Besides, in data set [2], the “Binding rat Inh %” value was 89% and the Ki is 3980 pM.

Regarding `O=C(NCc1cccs1)c1ccc2c(c1)N=C(c1ccc(F)cc1)c1ccccc1S2` [drawing 1178], in data set [1], the “Binding Human Inh %” value is 76% and the Ki is 200 pM. In data set [2], the “Binding rat Inh %” value is on record as 97% and the Ki is 1580 pM.

As to `CCCCNC(=O)c1ccc2c(c1)N=C(c1ccc(Cl)cc1)c1ccc(F)cc1S2` [drawing 1184], in data set [1], the “Binding Human Inh %” value worked out at 94% and the Ki is 251 pM. Also, in data set [2], the “Binding rat Inh %” value is reported as 98% and the Ki was 2510 pM.

For the compound `CC(C)CCNC(=O)c1ccc2c(c1)N=C(c1cccc(Cl)c1)c1ccccc1S2` [drawing 1185], in data set [1], the “Binding Human Inh %” value stood at 86% and the Ki is 251 pM. For the same compound, in data set [2], the “Binding rat Inh %” value was 89% and the Ki is 1000 pM.

As for `COc1cccc(C2=Nc3cc(C(=O)NCCCC(F)(F)F)ccc3Sc3ccccc32)n1` [drawing 1186], in data set [1], the “Binding Human Inh %” value turned out to be 84% and the Ki was 316 pM. Moreover, in data set [2], the “Binding rat Inh %” value was found to be 87% and the Ki is 10000 pM.

Regarding `CCCCNC(=O)c1ccc2c(c1)N=C(c1ccc(Cl)s1)c1ccccc1S2` [drawing 1191], in data set [1], the “Binding Human Inh %” value worked out at 90% and the Ki was 316 pM. In data set [2], the “Binding rat Inh %” value is reported as 101% and the Ki was 2510 pM.

On to `CC(C)CNC(=O)c1ccc2c(c1)N=C(c1ccc(Cl)c(Cl)c1)c1ccccc1S2` [drawing 1192], for which, in data set [1], the “Binding Human Inh %” value is 100% and the Ki was 398 pM. Also, in data set [2], the “Binding rat Inh %” value turned out to be 96% and the Ki is 1580 pM.

For `COc1cccc(C2=Nc3cc(C(=O)NC4CCC(F)(F)CC4)ccc3Sc3ccccc32)n1` [drawing 1193], in data set [1], the “Binding Human Inh %” value amounted to 88% and the Ki was 501 pM. Further, in data set [2], the “Binding rat Inh %” value is recorded as 82% and the Ki is 794 pM.

With `Cc1ccsc1C1=Nc2cc(C(=O)NN3CCCCCC3)ccc2Sc2ccccc21` [drawing 1706], the microsomal CLint at 1 μM was 448 µL/min/mg in data set [3], 118 µL/min/mg in data set [4] and 358 µL/min/mg in data set [5].

Regarding `COc1ccc(C2=Nc3cc(C(=O)NCC(C)C)ccc3Sc3ccccc32)cc1` [drawing 1708], the microsomal CLint at 1 μM in data set [3] was 218 µL/min/mg; in data set [4] it was 78 µL/min/mg; in data set [5] it was 113 µL/min/mg.

For `O=C(NC1CCCCC1)c1ccc2c(c1)N=C(c1ccc(Cl)cc1)c1ccccc1S2` [drawing 1712], the microsomal CLint at 1 μM in data set [3] is 78 µL/min/mg; in data set [4], 8 µL/min/mg; in data set [5], 43 µL/min/mg.

Consider `O=C(NCc1cccs1)c1ccc2c(c1)N=C(c1ccc(Cl)s1)c1ccccc1S2` [drawing 1723], for which the microsomal CLint at 1 μM turned out to be 184 µL/min/mg in data set [3], 30 µL/min/mg in data set [4] and 97 µL/min/mg in data set [5].

As to `O=C(NCc1cccnc1)c1ccc2c(c1)N=C(c1ccc(F)cc1)c1ccccc1S2` [drawing 1724], the microsomal CLint at 1 μM in data set [3] came to 101 µL/min/mg; in data set [4] it was 61 µL/min/mg; in data set [5], 107 µL/min/mg.

Take `O=C(NCc1cccc(Cl)c1)c1ccc2c(c1)N=C(c1ccc(Cl)cc1)c1ccccc1S2` [drawing 1725]: the microsomal CLint at 1 μM in data set [3] is 238 µL/min/mg; in data set [4] it was 9 µL/min/mg; in data set [5], 58 µL/min/mg.

Regarding `O=C(NCc1cccnc1)c1ccc2c(c1)N=C(c1ccc(Br)cc1)c1ccccc1S2` [drawing 1728], the microsomal CLint at 1 μM in data set [3] was 83 µL/min/mg; in data set [4], 39 µL/min/mg; in data set [5], 70 µL/min/mg.

Consider `Cc1ccsc1C1=Nc2cc(C(=O)NN3CCCCC3)ccc2Sc2ccccc21` [drawing 1730], for which the microsomal CLint at 1 μM came out at 385 µL/min/mg in data set [3], 50 µL/min/mg in data set [4] and 304 µL/min/mg in data set [5].

Take `O=C(NCc1cccs1)c1ccc2c(c1)N=C(c1cccc(Cl)c1)c1ccccc1S2` [drawing 1733]: the microsomal CLint at 1 μM was found to be 187 µL/min/mg in data set [3], 32 µL/min/mg in data set [4] and 99 µL/min/mg in data set [5].

With `O=C(NCc1cccs1)c1ccc2c(c1)N=C(c1ccc(Cl)cc1)c1ccccc1S2` [drawing 1735], the microsomal CLint at 1 μM in data set [3] was determined as 90 µL/min/mg; in data set [4] it was 17 µL/min/mg; in data set [5], 76 µL/min/mg.

`CCCCNC(=O)c1ccc2c(c1)N=C(c1ccc(Cl)cc1)c1ccccc1[S+]2[O-]` (stereo not shown) [drawing 1736]: the microsomal CLint at 1 μM in data set [3] is 53 µL/min/mg; in data set [4] it was 31 µL/min/mg; in data set [5] it was 41 µL/min/mg.

`O=C(NCc1ccc(F)cc1)c1ccc2c(c1)N=C(c1ccc(Cl)cc1)c1ccccc1S2` [drawing 1741]: the microsomal CLint at 1 μM in data set [3] was found to be 130 µL/min/mg; in data set [4], 16 µL/min/mg; in data set [5] it was 56 µL/min/mg.

Regarding `O=C(NCc1cccnc1)c1ccc2c(c1)N=C(c1cccc(F)c1)c1ccccc1S2` [drawing 1742], the microsomal CLint at 1 μM in data set [3] worked out at 127 µL/min/mg; in data set [4], 73 µL/min/mg; in data set [5], 187 µL/min/mg.

On to `O=C(NCc1cccs1)c1ccc2c(c1)N=C(c1ccccc1F)c1ccccc1S2` [drawing 1744], for which the microsomal CLint at 1 μM in data set [3] came to 386 µL/min/mg; in data set [4], 89 µL/min/mg; in data set [5] it was 225 µL/min/mg.

In the case of `CCCCNC(=O)c1ccc2c(c1)N=C(c1ccc(F)cn1)c1ccccc1S2` [drawing 1752], the microsomal CLint at 1 μM in data set [3] came out at 668 µL/min/mg; in data set [4], 56 µL/min/mg; in data set [5], 264 µL/min/mg.

As to `O=C(NCc1cccnc1)c1ccc2c(c1)N=C(c1ccc(Cl)cc1)c1ccccc1S2` [drawing 1756], the microsomal CLint at 1 μM in data set [3] was found to be 92 µL/min/mg; in data set [4] it was 41 µL/min/mg; in data set [5], 80 µL/min/mg.

Consider `O=C(NC1CCCCC1)c1ccc2c(c1)N=C(c1cccc(F)c1)c1ccccc1S2` [drawing 1757], for which the microsomal CLint at 1 μM in data set [3] came to 176 µL/min/mg; in data set [4] it was 29 µL/min/mg; in data set [5], 90 µL/min/mg.

Consider `C[C@@H]1CCC[C@H](C)N1NC(=O)c1ccc2c(c1)N=C(c1cccc(F)c1)c1ccccc1S2` [drawing 1758], for which the microsomal CLint at 1 μM is 659 µL/min/mg in data set [3], 513 µL/min/mg in data set [4] and 318 µL/min/mg in data set [5].

Regarding `O=C(NCc1ccccn1)c1ccc2c(c1)N=C(c1ccc(Cl)cc1)c1ccccc1S2` [drawing 1760], the microsomal CLint at 1 μM came to 73 µL/min/mg in data set [3], 37 µL/min/mg in data set [4] and 46 µL/min/mg in data set [5].

For `CC(C)CNC(=O)c1ccc2c(c1)N=C(c1ccc(F)cc1)c1ccccc1S2` [drawing 1761], the microsomal CLint at 1 μM came to 354 µL/min/mg in data set [3], 43 µL/min/mg in data set [4] and 125 µL/min/mg in data set [5].

Turning to `Cc1ccsc1C1=Nc2cc(C(=O)NCc3ccco3)ccc2Sc2ccccc21` [drawing 1762], the microsomal CLint at 1 μM in data set [3] came out at 755 µL/min/mg; in data set [4], 155 µL/min/mg; in data set [5], 395 µL/min/mg.

For `O=C(NCc1ccccc1)c1ccc2c(c1)N=C(c1cccc(Cl)c1)c1ccccc1S2` [drawing 1767], the values for the microsomal CLint at 1 μM in data set [3], in data set [4] and in data set [5] were 205 µL/min/mg, 23 µL/min/mg and 85 µL/min/mg, respectively.

Consider `O=C(NCCc1cccnc1)c1ccc2c(c1)N=C(c1cccc(Cl)c1)c1ccccc1S2` [drawing 1770], for which the microsomal CLint at 1 μM in data set [3] came out at 82 µL/min/mg; in data set [4], 130 µL/min/mg; in data set [5], 154 µL/min/mg.

Regarding `O=C(NCc1ccc(F)cc1)c1ccc2c(c1)N=C(c1ccc(Cl)cc1)c1ccccc1[S+]2[O-]` (stereo not shown) [drawing 1772], the results for the microsomal CLint at 1 μM in data set [3], in data set [4] and in data set [5] were 37 µL/min/mg, 11 µL/min/mg and 31 µL/min/mg, respectively.

`O=C(NCc1ccc(F)cc1)c1ccc2c(c1)N=C(C1CCCCC1)c1ccccc1S2` [drawing 1775]: the microsomal CLint at 1 μM came to 275 µL/min/mg in data set [3], 58 µL/min/mg in data set [4] and 493 µL/min/mg in data set [5].

Take `Cc1ccsc1C1=Nc2cc(C(=O)NCc3cccs3)ccc2Sc2ccccc21` [drawing 1781]: the microsomal CLint at 1 μM in data set [3] was 852 µL/min/mg; in data set [4], 227 µL/min/mg; in data set [5] it was 542 µL/min/mg.

Take `O=C(NN1CCCCC1)c1ccc2c(c1)N=C(c1ccc(Cl)cn1)c1ccccc1S2` [drawing 1786]: the results for the microsomal CLint at 1 μM in data set [3], in data set [4] and in data set [5] were 416 µL/min/mg, 64 µL/min/mg and 290 µL/min/mg, respectively.

`O=C(NCc1ccccc1)c1ccc2c(c1)N=C(c1ccc(Cl)cc1)c1ccccc1S2` [drawing 1801]: the microsomal CLint at 1 μM in data set [3] was 166 µL/min/mg; in data set [4], 23 µL/min/mg; in data set [5], 63 µL/min/mg.

With `O=C(NCc1ccco1)c1ccc2c(c1)N=C(c1ccc(Cl)cc1)c1ccccc1S2` [drawing 1803], the values for the microsomal CLint at 1 μM in data set [3], in data set [4] and in data set [5] were 97 µL/min/mg, 29 µL/min/mg and 75 µL/min/mg, respectively.

A word on the microsomal CLint: it is a measure of how fast metabolising enzymes remove a compound, apart from limits set by blood flow.
